For data set [1], the system named is Erythrocyte. Put plainly: Inhibition of Hemagglutinin in Influenza A virus (H5N1) assessed as reduction in virus-induced agglutination of chicken erythrocytes by hemagglutination assay. The class given is cell-based. The following applies: dose microM 5-160.
The subject of data set [2] is Influenza A virus. The class given is functional, organism-based. The conditions noted are these: A/Duck/Guangdong/212/2004(H5N1), A549.
Data set [3] can be described thus: Cytotoxicity against human A549 cells assessed as reduction in cell viability by MTT assay. The class given is cell-based.
Data set [4] concerns H5N1 subtype. Kind of data set: Antiviral activity against Influenza A virus (A/Thailand/Kan353/2004(H5N1)) infected in MDCK cells assessed as inhibition of viral entry. The class given is functional, organism-based.
In data set [5] the test system is Vesicular stomatitis virus. Kind of data set: Antiviral activity against VSV-G enveloped pseudovirus infected in MDCK cells assessed as inhibition of viral entry at 1 to 100 uM. The class given is functional, organism-based. The following applies: dose microM 1-100.
In data set [6] the test system is Influenza A virus (A/Thailand/Kan353/2004(H5N1)). Kind of data set: Inhibition of Influenza A virus (A/Thailand/Kan353/2004(H5N1)) neuraminidase N1 at 5 to 20 microM by fluorescence method. The conditions noted are these: dose microM 5-20.
A short description of data set [7]: (§1) Binding affinity to Influenza A virus (A/Viet Nam/1203/2004(H5N1)) hemagglutin by surface plasmon resonance assay.
For data set [8], the system named is Influenza A virus (A/Viet Nam/1203/2004(H5N1)). The description is as §1.
Data set [9] has as its system Influenza A virus. The class given is functional, organism-based. The following applies: A/Duck/Guangdong/212/2004(H5N1), dose mg/kg 40-160, time 5.0 day.
In data set [10] the test system is MDCK. Put plainly: Cytotoxicity against dog MDCK cells assessed as reduction in cell viability at 0.78125 to 200 uM. The class given is cell-based, Canis lupus familiaris. The following applies: dose 0.78125-200 µM.
Data set [11] relates to Influenza A virus. The class given is functional, organism-based. The conditions noted are these: A/Duck/Guangdong/212/2004(H5N1), A549, dose 25.0 µM.
Data set [12] is described as follows: in vitro. The conditions noted are these: human, A549 cells.
The test system of data set [13] is MDCK. Kind of data set: (§2) Cytotoxicity against dog MDCK cells assessed as reduction in cell viability. The class given is cell-based, Canis lupus familiaris. The conditions noted are these: mdck.
Data set [14] deals with Influenza A virus. The class given is functional, organism-based. The following applies: A/Duck/Guangdong/212/2004(H5N1), dose 80.0 mg/kg, time 5.0 day.
A short description of data set [15]: as §2. The class given is cell-based, Canis lupus familiaris. The following applies: MDCK cells.

Activity calls are given as the source filed them. No cut-off for these calls is given here.

Take `C[C@H]1[C@H](C)CC[C@]2(C(=O)N(C)C)CC[C@]3(C)C(=CC[C@@H]4[C@@]5(C)CC[C@@H](O[C@@H]6O[C@H](CO)[C@@H](O[C@@H]7O[C@@H](C)[C@H](O)[C@@H](O)[C@H]7O)[C@H](O)[C@H]6O[C@@H]6O[C@@H](C)[C@H](O)[C@@H](O)[C@H]6O)C(C)(C)[C@@H]5CC[C@]43C)[C@H]12`: in data set [1], the inhibition entry was “Dose-dependent effect”. Moreover, the results for the 50% inhibitory concentration (IC50) in data set [2] and in [4] were 8.42 µM and 6.29 µM, respectively. Further, the CC50 in data set [3] is > 1000 µM. For the same compound, the outcome in data set [5] was inactive. The inhibition result in [6] is “inactive”. In data set [7], the Kd stood at 0.00164 µM. The Activity entry in [8] was “Dose-dependent effect”; in data set [9] it was “Dose-dependent effect”; in [10], “Non-Toxic”. In data set [11], the result was Active. In addition, in [12], the selectivity ratio was > 119.

As to `COC(=O)[C@]12CC[C@@H](C)[C@H](C)[C@H]1C1=CC[C@@H]3[C@@]4(C)CC[C@@H](O[C@@H]5O[C@H](CO)[C@@H](O[C@@H]6O[C@@H](C)[C@H](O)[C@@H](O)[C@H]6O)[C@H](O)[C@H]5O[C@@H]5O[C@@H](C)[C@H](O)[C@@H](O)[C@H]5O)C(C)(C)[C@@H]4CC[C@@]3(C)[C@]1(C)CC2`, in data set [2], the midpoint of inhibition, the IC50, lay at 16.4 µM. For the same compound, the CC50 in data set [3] came out at 363 µM. Besides, the Activity result in [13] was “Non-Toxic”. Further, the selectivity ratio in [12] came out at 22.1.

In the case of `C[C@H]1[C@H](C)CC[C@]2(C(=O)OC3CCCC3)CC[C@]3(C)C(=CC[C@@H]4[C@@]5(C)CC[C@@H](O[C@@H]6O[C@H](CO)[C@@H](O[C@@H]7O[C@@H](C)[C@H](O)[C@@H](O)[C@H]7O)[C@H](O)[C@H]6O[C@@H]6O[C@@H](C)[C@H](O)[C@@H](O)[C@H]6O)C(C)(C)[C@@H]5CC[C@]43C)[C@H]12`, in data set [2], the IC50 is 40.5 µM. In data set [3], the CC50 amounted to 524 µM. Further, the selectivity ratio in data set [12] stood at 12.9.

`CCCCCOC(=O)[C@]12CC[C@@H](C)[C@H](C)[C@H]1C1=CC[C@@H]3[C@@]4(C)CC[C@@H](O[C@@H]5O[C@H](CO)[C@@H](O[C@@H]6O[C@@H](C)[C@H](O)[C@@H](O)[C@H]6O)[C@H](O)[C@H]5O[C@@H]5O[C@@H](C)[C@H](O)[C@@H](O)[C@H]5O)C(C)(C)[C@@H]4CC[C@@]3(C)[C@]1(C)CC2` registered an IC50 in [2] of 29.3 µM. In addition, the CC50 in data set [3] was 489 µM. Moreover, the selectivity ratio in [12] amounted to 16.7.

`NC(=O)c1ncn([C@@H]2O[C@H](CO)[C@@H](O)[C@H]2O)n1` [RIBAVIRIN]: the IC50 in [2] was 47.2 µM. The CC50 in [3] turned out to be 130 µM. Also, the result in [14] was Active. Besides, in data set [12], the selectivity ratio is 2.7.

As for `C[C@H]1[C@H](C)CC[C@]2(C(=O)O)CC[C@]3(C)C(=CC[C@@H]4[C@@]5(C)CC[C@@H](O[C@@H]6O[C@H](CO)[C@@H](O[C@@H]7O[C@@H](C)[C@H](O)[C@@H](O)[C@H]7O)[C@H](O)[C@H]6O[C@@H]6O[C@@H](C)[C@H](O)[C@@H](O)[C@H]6O)C(C)(C)[C@@H]5CC[C@]43C)[C@H]12`, the IC50 in data set [2] amounted to 48.7 µM. Moreover, in data set [3], the CC50 turned out to be 283 µM. In [12], the selectivity ratio stood at 5.8.

As for `CNC(=O)[C@]12CC[C@@H](C)[C@H](C)[C@H]1C1=CC[C@@H]3[C@@]4(C)CC[C@@H](O[C@@H]5O[C@H](CO)[C@@H](O[C@@H]6O[C@@H](C)[C@H](O)[C@@H](O)[C@H]6O)[C@H](O)[C@H]5O[C@@H]5O[C@@H](C)[C@H](O)[C@@H](O)[C@H]5O)C(C)(C)[C@@H]4CC[C@@]3(C)[C@]1(C)CC2`, in data set [2], the IC50 was determined as 12.2 µM. Further, the CC50 in [3] was > 1000 µM. Further, the selectivity ratio in data set [12] is > 81.7.

`CCOC(=O)[C@]12CC[C@@H](C)[C@H](C)[C@H]1C1=CC[C@@H]3[C@@]4(C)CC[C@@H](O[C@@H]5O[C@H](CO)[C@@H](O[C@@H]6O[C@@H](C)[C@H](O)[C@@H](O)[C@H]6O)[C@H](O)[C@H]5O[C@@H]5O[C@@H](C)[C@H](O)[C@@H](O)[C@H]5O)C(C)(C)[C@@H]4CC[C@@]3(C)[C@]1(C)CC2` registered an IC50 in data set [2] of 18.1 µM. For the same compound, in data set [3], the CC50 stood at 375 µM. In addition, in data set [12], the selectivity ratio is 20.7.

As to `C[C@H]1[C@H](C)CC[C@]2(C(=O)NC3CCCC3)CC[C@]3(C)C(=CC[C@@H]4[C@@]5(C)CC[C@@H](O[C@@H]6O[C@H](CO)[C@@H](O[C@@H]7O[C@@H](C)[C@H](O)[C@@H](O)[C@H]7O)[C@H](O)[C@H]6O[C@@H]6O[C@@H](C)[C@H](O)[C@@H](O)[C@H]6O)C(C)(C)[C@@H]5CC[C@]43C)[C@H]12`, half-maximal inhibition in data set [2] (IC50) required 18.5 µM. In addition, the CC50 in data set [3] was > 1000 µM. The selectivity ratio in data set [12] was > 54.1.

Regarding `C[C@H]1[C@H](C)CC[C@]2(C(=O)N(C)C)CC[C@]3(C)C(=CC[C@@H]4[C@@]5(C)CC[C@H](O[C@@H]6O[C@H](CO)[C@@H](O[C@@H]7O[C@@H](C)[C@H](O)[C@@H](O)[C@H]7O)[C@H](O)[C@H]6O[C@@H]6O[C@@H](C)[C@H](O)[C@@H](O)[C@H]6O)C(C)(C)[C@@H]5CC[C@]43C)[C@H]12`, the CC50 in [15] amounted to 47 µM.

Take `C[C@H]1[C@H](C)CC[C@]2(C(=O)OCc3ccccc3)CC[C@]3(C)C(=CC[C@@H]4[C@@]5(C)CC[C@@H](O[C@@H]6O[C@H](CO)[C@@H](O[C@@H]7O[C@@H](C)[C@H](O)[C@@H](O)[C@H]7O)[C@H](O)[C@H]6O[C@@H]6O[C@@H](C)[C@H](O)[C@@H](O)[C@H]6O)C(C)(C)[C@@H]5CC[C@]43C)[C@H]12`: in data set [2], the IC50 was > 50 µM.

As for `C[C@H]1[C@H](C)CC[C@]2(C(=O)NCc3ccccc3)CC[C@]3(C)C(=CC[C@@H]4[C@@]5(C)CC[C@@H](O[C@@H]6O[C@H](CO)[C@@H](O[C@@H]7O[C@@H](C)[C@H](O)[C@@H](O)[C@H]7O)[C@H](O)[C@H]6O[C@@H]6O[C@@H](C)[C@H](O)[C@@H](O)[C@H]6O)C(C)(C)[C@@H]5CC[C@]43C)[C@H]12`, the half-inhibitory concentration (IC50) in data set [2] is > 50 µM.

Consider `C[C@H]1[C@H](C)CC[C@]2(C(=O)Nc3ccccc3)CC[C@]3(C)C(=CC[C@@H]4[C@@]5(C)CC[C@@H](O[C@@H]6O[C@H](CO)[C@@H](O[C@@H]7O[C@@H](C)[C@H](O)[C@@H](O)[C@H]7O)[C@H](O)[C@H]6O[C@@H]6O[C@@H](C)[C@H](O)[C@@H](O)[C@H]6O)C(C)(C)[C@@H]5CC[C@]43C)[C@H]12`, for which, in data set [2], inhibition was half-maximal at 33.8 µM (IC50). Also, the CC50 in data set [3] was > 1000 µM. In addition, the selectivity ratio in [12] was > 29.6.

The values are drawn from ChEMBL document CHEMBL4699479, “Structure-aided optimization of 3-O-β-chacotriosyl epiursolic acid derivatives as novel H5N1 virus entry inhibitors” (Bioorg Med Chem Lett, 2020).
